According to patent US20120082647A1, “INTERFERON-BETA FOR USE AS MONOTHERAPY OR IN COMBINATION WITH OTHER CANCER THERAPIES” (priority 2010, published 2012):

Legend:
[1] = tested on: SK-MEL-1 human melanoma cells; experiment: SK-MEL-1 melanoma tumor volume in nude mice; assay type: in vivo; details: SK-MEL-1 tumor volume; PD325901 15 mg/kg QD 14 days, pegylated Interferon-beta-1a 10 μg QW 3 weeks
Description: Tumors were measured every 3 days using calipers and volume was calculated for a prolate spheroid, defined as:
where L equals the major diameter and W equals the minor diameter.

ERK phosphorylation = ERK phosphorylation in SK-MEL-1 tumors (western blot); assay type: in vivo, nude mice; details: SK-MEL-1 tumors removed 8 hours post last dose; FIG. 4
Description: Athymic nude mice were inoculated with 2×10^6 SK-MEL-1 human melanoma cells (1 injection in flank; 1 injection per mouse) and 100-200 cubic mm tumors were established. pegylated IFN β-1a was provided in 20 mM acetic acid/sodium acetate at a pH of 4.8 and 150 mM arginine/HCl containing 15 mg/mL human serum albumin (HSA). HSA was used as a control and administered at a concentration of 15 mg/mL. Mice (10 per group) were randomized and treated with either:
i. PEG400 (once a day (QD) for 14 days) and pegylated Interferon-beta-1a (10 μg once a week (QW) for 3 weeks); ii. PD325901 (15 mg/kg once a day (QD) for 14 days) and pegylated Interferon-beta-1a (10 μg once a week (QW) for 3 weeks); iii. PEG400 (once a day (QD) for 14 days) and (HSA) (QW for 3 weeks); iv. PD325901 (15 mg/kg once a day (QD) for 14 days) and HSA (QW for 3 weeks).
Tumors were measured every 3 days using calipers and volume was calculated for a prolate spheroid. The identity of the vehicle control for pegylated interferon-beta-1a vehicle (HSA) and pegylated Interferon-beta-1a was blinded. Tumors were removed 8 hours post last dose and frozen for ERK phosphorylation analysis.

[2] = tested on: MDA-MB-231 breast carcinoma cells; experiment: MDA-MB-231 breast carcinoma tumor volume in SCID mice; assay type: in vivo; details: paclitaxel 25 mg/kg I.P. q4d x 3, pegylated interferon beta 1a 0.4 to 1.6 mg/kg SC BIW
Description: 8-10 week old SCID mice from Charles River Labs were inoculated subcutaneously with 5×10^6 MDA-MB-231 breast carcinoma cells with 50% matrigel in the flank region. When the average tumor volumes reached approximately 200 mm^3 the tumor-bearing mice were randomized to treatment groups. Pegylated IFN-1a was provided in 20 mM acetic acid/sodium acetate at a pH of 4.8 and 150 mM arginine/HCl (4.8A buffer). Paclitaxel was provided in a Cremophor Ethanol Saline mixture (CES buffer).

SMILES	difference between estimates of least square means between treatment groups and vehicle control group [1]	ERK phosphorylation compared to vehicle and pegylated Interferon-beta-1a treated groups (ERK phosphorylation)	inhibition of tumor growth, single agent versus vehicle controls [2]
O=C(NOC[C@H](O)CO)c1ccc(F)c(F)c1Nc1ccc(I)cc1F [PD325901, N-[(2R)-2,3-dihydroxypropoxy]-3,4-difluoro-2-[(2-fluoro-4-iodo-phenyl)amino]benzamide]	−4.52	significant inhibition of ERK phosphorylation	–
CC(=O)O[C@H]1C(=O)[C@@]2(C)[C@H]([C@H](OC(=O)c3ccccc3)[C@]3(O)C[C@H](OC(=O)[C@H](O)[C@@H](NC(=O)c4ccccc4)c4ccccc4)C(C)=C1C3(C)C)[C@]1(OC(C)=O)CO[C@@H]1C[C@@H]2O [paclitaxel]	–	–	greater inhibition of tumor growth compared to mice treated with vehicle controls
